Key:
[1] = test system: human PBMCs; experiment: A. fumigatus conidia-induced cytokine production in human PBMCs; type: cell-based; details: 7 days, presence vs absence of recombinant human IL-1RA 10 ng/ml
Experimental: (§1) A clinical isolate of Aspergillus fumigatus V05-27, which has been characterized previously was used for stimulations (Netea et al., 2003). Conidia and hyphae were prepared and heat-inactivated (HI) as previously described (Chai et al., 2009a). A concentration of 1×10^7/ml was used in the experiments, unless otherwise indicated. C. albicans, strain ATCC MYA-3573 (UC820) (Gow et al., 2007; Lehrer and Cline, 1969). Candida were heat-killed (HK) at 98° C. for 1 hour and used in a final concentration of 1×10^7/ml. Recombinant human IL-1β, IL-23, IL-12 and IL-18 were purchased from R&D Systems (Minneapolis, Minn., USA) and were used in end concentrations of 100 ng/ml, 50 ng/ml, 10 ng/ml and 50 ng/ml respectively. Recombinant human (rh) IL-1Ra (Amgen, Inc., Thousand Oaks, Calif., USA) was used to antagonize IL-1β signalling at a final concentration of 10 ng/ml. Anti-human IL-1Ra (R&D) was used to block IL-1Ra in a final concentration of 10 μg/ml, and was compared to isotype control. Pattern recognition pathways were inhibited in PBMCs by pre-stimulation for 1 hour with a specific inhibitor. LPS derived from Bartonella quitana was used to block TLR4 (Abdollahi-Roodsaz et al., 2007). B. quitana LPS was extracted and purified as described previously (Hirschfeld et al., 1999). Mouse anti-humanTLR-2 (eBioscience, Halle-Zoersel, Belgium) and control mouse IgG1 (eBioscience) were used at a final concentration of 10 μg/mL. Anti-human integrin β2 (αCR3) and control goat IgG were purchased from R&D systems (Minneapolis, Minn., USA) and used in a final concentration of 10 μg/mL. […]
(§2) Venous blood from healthy volunteers was drawn into 10 ml EDTA tubes after written informed consent, after which PBMCs were isolated as previously described (van de Veerdonk et al., 2009). […] The cells were counted using a particle counter (Beckmann Coulter, Woerden, The Netherlands) and the cell number was adjusted to 5×10^6/ml. […]
(§3) Cytokines were measured using commercially available ELISAs (R&D Systems)(Sanquin, Amsterdam, The Netherlands) according to the protocols supplied by the manufacturer. […]

[2] = cited from earlier work
[3] = test system: DSS-induced colitis; experiment: Dextran sulfate sodium-induced colitis in WT and p47phox−/− mice; type: in vivo; details: WT and p47phox−/− mice treated with Anakinra
Experimental: Mice received either regular drinking water (control) or 2.5% dextran sulfate sodium (DSS) in drinking water for 7 days and then allowed to recover by drinking water alone for an additional 7 days. GAG was given intraperitoneally (1 mg/kg) daily for a week. Weight changes were recorded daily, and the day after the 7-days of rest mice were killed and tissues were collected for histology and cytokine analysis. Colonic sections were stained with H&E (Takedatsu 2008). To assess colitis severity, stool and histological scores were used that recently were introduced and proven sensitive to experimental therapy (PMID: 21763243).
Colitis was induced in C57BL/6 wild-type (WT) or p47phox^−/− mice that recapitulate several of the features of the human Chronic Granulomatous Disease (CGD) (Huang et al., 1998; Romani et al., 2008). Colitis is a severe complication of CGD patients, the management of which is a challenge because standard immunosuppressive therapy increases the risk of infection in already immunocompromised hosts (Huang et al., 2004). Colitis was induced with dextran sulfate sodium (DSS 2.5% in drinking water for 7 days and then allowed to recover by drinking water alone for an additional 7 days) and the effect of GAG (1 mg/kg intraperitoneally for a week) on colonic injury was assessed. The day after the 7-day of rest, mice were killed and tissues were collected for histology, RNA and cytokine analysis. Colonic sections were stained with H&E, and histology was scored. Cytokines were measured by enzyme-linked immunoabsorbent assay (ELISA) and real time-polymerase chain reaction (RT-PCR) on colonic tissues.

[4] = test system: human PBMCs; experiment: Cytokine-driven (IL-1β/IL-23, IL-12/IL-18) T-helper cytokine responses in human PBMCs; type: cell-based; details: 7 days, presence vs absence of recombinant human IL-1RA 10 ng/ml
Experimental: as §1, §2, §3

[5] = patients with rheumatoid arthritis

## IL-1RA: human recombinant form of interleukin-1 receptor antagonist, commercially produced as anakinra
[1]
  IFNγ induction by Aspergillus conidia: reduced
  IL-17 induction by Aspergillus conidia: reduced
  IL-22 induction by Aspergillus conidia: reduced
[2]; human, in vivo
  side effect: diarrhea: 7%
  side effect: flu-like syndrome: 6%
  side effect: infections of upper respiratory tract: 13%
  side effect: nausea: 8%
  side effect: risk of infections: 40%
  side effect: severe infections: 2%
  side effect: sinusitis: 7%
[2]; [5]
  progressive joint destruction: slows
  symptoms of rheumatoid arthritis: reduces
[3]
  cytokine gene expression, compared with the effect of GAG: similar
  damage score, compared with the effect of GAG: similar
  inflammatory pathology, compared with the effect of GAG: similar
[4]
  IFNγ induction by IL-12/IL-18: reduced
  IL-17 induction by IL-1/IL-23: reduced
  IL-22 induction by IL-1/IL-23: reduced

From US20160008391A1, “GALACTOSAMINOGALACTAN COMPRISING alpha-1-4 LINKED GALACTOSE AND alpha-1-4 LINKED N-ACETYLGALACTOSAMINE FOR USE IN THE TREATMENT OF AT LEAST ONE INFLAMMATORY DISEASE” (INSTITUT PASTEUR, priority 2013, published 2016)
